Experimental data: the supplement of paper PMC10307832

Legend:
Assay in all cases: relative viability (nuclei count vs DMSO), 5 days (fraction); higher = more cells survive
Dovitinib + Bortezomib = compound: CN1CCN(c2ccc3nc(-c4c(N)c5c(F)cccc5[nH]c4=O)[nH]c3c2)CC1 [Dovitinib] + CC(C)C[C@H](NC(=O)[C@H](Cc1ccccc1)NC(=O)c1cnccn1)B(O)O [Bortezomib] (partner 0.002 µM)
Procedure, shortened: (§1)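 A single step with final 0.05% Triton X-100, 1% formaldehyde and 1 ug/ml Hoechst fixed the cells and stained nuclei 5 days after treatment. Lung cancer cell lines in 1536-well plates had been treated by pin tool the day after seeding with one drug alone or a fixed anchor-drug dose plus five library-drug doses (not always all listed) in √10 steps, and nuclei were counted on 4× images. Relative viability is the ratio of nuclei in treated wells to nuclei in vehicle wells, taken as the median of duplicate plates.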

Dovitinib + Tozasertib = compound: CN1CCN(c2ccc3nc(-c4c(N)c5c(F)cccc5[nH]c4=O)[nH]c3c2)CC1 [Dovitinib] + Cc1cc(Nc2cc(N3CCN(C)CC3)nc(Sc3ccc(NC(=O)C4CC4)cc3)n2)n[nH]1 [Tozasertib] (partner 0.1 µM)
Procedure, shortened: as §1

Dovitinib + AZD7762 = compound: CN1CCN(c2ccc3nc(-c4c(N)c5c(F)cccc5[nH]c4=O)[nH]c3c2)CC1 [Dovitinib] + NC(=O)Nc1cc(-c2cccc(F)c2)sc1C(=O)N[C@H]1CCCNC1 [AZD7762] (partner 0.2 µM)
Procedure, shortened: as §1

Dovitinib + Decitabine = compound: CN1CCN(c2ccc3nc(-c4c(N)c5c(F)cccc5[nH]c4=O)[nH]c3c2)CC1 [Dovitinib] + Nc1ncn([C@H]2C[C@H](O)[C@@H](CO)O2)c(=O)n1 [Decitabine] (partner 2 µM)
Procedure, shortened: as §1

Row | Cell Line | relative viability (Dovitinib + Bortezomib; first compound 0.02 µM) | relative viability (Dovitinib + Bortezomib; first compound 0.06325 µM) | relative viability (Dovitinib + Bortezomib; first compound 0.2 µM) | relative viability (Dovitinib + Bortezomib; first compound 0.6325 µM) | relative viability (Dovitinib + Bortezomib; first compound 2 µM) | relative viability (Dovitinib + Tozasertib; first compound 0.02 µM) | relative viability (Dovitinib + Tozasertib; first compound 0.06325 µM) | relative viability (Dovitinib + Tozasertib; first compound 0.2 µM) | relative viability (Dovitinib + Tozasertib; first compound 0.6325 µM) | relative viability (Dovitinib + Tozasertib; first compound 2 µM) | relative viability (Dovitinib + AZD7762; first compound 0.02 µM) | relative viability (Dovitinib + AZD7762; first compound 0.06325 µM) | relative viability (Dovitinib + AZD7762; first compound 0.2 µM) | relative viability (Dovitinib + AZD7762; first compound 0.6325 µM) | relative viability (Dovitinib + AZD7762; first compound 2 µM) | relative viability (Dovitinib + Decitabine; first compound 0.02 µM) | relative viability (Dovitinib + Decitabine; first compound 0.06325 µM) | relative viability (Dovitinib + Decitabine; first compound 0.2 µM) | relative viability (Dovitinib + Decitabine; first compound 0.6325 µM) | relative viability (Dovitinib + Decitabine; first compound 2 µM)
1 | HOP-62 | 0.604 | 0.619 | 0.794 | 0.968 | 0.578 | 0.316 | 0.401 | 0.346 | 0.384 | 0.424 | 0.364 | 0.534 | 0.697 | 0.62 | 0.551 | 0.208 | 0.255 | 0.191 | 0.269 | 0.214
2 | LU99A | 1.15 | 1.08 | 0.987 | 1.05 | 1.32 | 0.222 | 0.226 | 0.272 | 0.239 | 0.251 | 0.294 | 0.469 | 0.358 | 0.277 | 0.387 | 0.759 | 0.762 | 0.965 | 0.981 | 0.904
3 | NCI-H647 | 0.993 | 1.08 | 1.13 | 0.897 | 0.667 | 0.297 | 0.317 | 0.452 | 0.279 | 0.315 | 0.42 | 0.404 | 0.493 | 0.522 | 0.398 | 0.402 | 0.438 | 0.444 | 0.303 | 0.387
4 | A-427 | 0.87 | 0.909 | 0.953 | 0.93 | 1.03 | 0.222 | 0.201 | 0.203 | 0.162 | 0.225 | 0.767 | 0.733 | 0.674 | 0.665 | 0.697 | 0.569 | 0.512 | 0.695 | 0.581 | 0.59
5 | NCI-H441 | 0.497 | 0.593 | 0.352 | 0.531 | 0.433 | 0.668 | 0.599 | 0.559 | 0.626 | 0.575 | 1.17 | 0.977 | 1.22 | 1.2 | 1.27 | 0.254 | 0.202 | 0.271 | 0.223 | 0.3
6 | NCI-H2126 | 1.11 | 1.09 | 1.2 | 1.08 | 1.07 | 0.833 | 0.807 | 0.951 | 0.794 | 0.833 | 0.982 | 1.04 | 1.03 | 1.04 | 1 | 0.605 | 0.573 | 0.676 | 0.556 | 0.599
7 | HCC-44 | 0.822 | 0.836 | 0.867 | 0.894 | 0.916 | 0.724 | 1.03 | 0.99 | 0.884 | 0.938 | 0.979 | 0.97 | 1.03 | 0.955 | 0.975 | 0.926 | 0.936 | 0.97 | 0.962 | 0.92
8 | NCI-H460 | 1.01 | 1.2 | 1.09 | 1.11 | 1.08 | 0.495 | 0.472 | 0.421 | 0.418 | 0.461 | 0.611 | 0.662 | 0.54 | 0.61 | 0.556 | 0.464 | 0.518 | 0.456 | 0.494 | 0.432
9 | NCI-H322M | 1.21 | 1.21 | 1.19 | 1.12 | 1.16 | 0.482 | 0.497 | 0.523 | 0.436 | 0.493 | 0.555 | 0.738 | 0.725 | 0.541 | 0.398 | 0.667 | 0.692 | 0.746 | 0.737 | 0.705
10 | EKVX | 1.08 | 1.08 | 1.22 | 1.06 | 1.08 | 0.431 | 0.367 | 0.372 | 0.431 | 0.38 | 0.569 | 0.775 | 0.694 | 0.755 | 0.684 | 0.388 | 0.399 | 0.348 | 0.339 | 0.286
11 | NCI-H1734 | 0.845 | 0.941 | 0.933 | 0.948 | 0.87 | 0.287 | 0.279 | 0.264 | 0.223 | 0.288 | 0.532 | 0.505 | 0.475 | 0.583 | 0.71 | 0.49 | 0.519 | 0.472 | 0.506 | 0.467
12 | ABC-1 | 0.262 | 0.34 | 0.306 | 0.323 | 0.315 | 0.175 | 0.208 | 0.201 | 0.208 | 0.192 | 0.519 | 0.852 | 0.735 | 0.536 | 0.698 | 1.08 | 0.991 | 1.03 | 0.891 | 1.14
13 | EPLC-272H | 0.917 | 0.949 | 0.883 | 0.875 | 0.905 | 0.343 | 0.267 | 0.263 | 0.343 | 0.32 | 0.281 | 0.218 | 0.197 | 0.218 | 0.239 | 0.403 | 0.333 | 0.336 | 0.372 | 0.374
14 | NCI-H1993 | 1.42 | 1.14 | 1.05 | 1.13 | 0.941 | 0.58 | 0.546 | 0.601 | 0.636 | 0.582 | 1.01 | 0.724 | 0.887 | 0.985 | 0.849 | 0.637 | 0.598 | 0.67 | 0.683 | 0.622
15 | NCI-H596 | 1.19 | 1.03 | 0.834 | 1.04 | 1.07 | 0.985 | 0.982 | 0.963 | 0.838 | 0.754 | 1.17 | 1.09 | 1 | 1.03 | 1.1 | 1.09 | 1.01 | 0.893 | 0.985 | 1.14
16 | HCC-827 | 1.08 | 1.07 | 1.04 | 1.09 | 1.05 | 0.44 | 0.455 | 0.441 | 0.43 | 0.469 | 0.203 | 0.213 | 0.244 | 0.237 | 0.212 | 0.308 | 0.353 | 0.324 | 0.336 | 0.338
17 | ChaGo-K-1 | 1.1 | 1.01 | 0.952 | 1.04 | 1.03 | 0.233 | 0.215 | 0.241 | 0.227 | 0.208 | 0.901 | 0.891 | 0.892 | 0.9 | 0.857 | 0.528 | 0.517 | 0.498 | 0.514 | 0.487
18 | EMC-BAC-2 | 1.05 | 0.995 | 1.08 | 1.05 | 1.04 | 0.294 | 0.299 | 0.287 | 0.273 | 0.3 | 1.21 | 1.06 | 1.1 | 1.08 | 1.16 | 1.1 | 0.958 | 1.06 | 1 | 1.01
19 | NCI-H23 | 0.925 | 1.02 | 1.01 | 1.05 | 1.22 | 0.293 | 0.475 | 0.581 | 0.354 | 0.358 | 0.287 | 0.233 | 0.23 | 0.275 | 0.377 | 0.309 | 0.329 | 0.346 | 0.284 | 0.291
20 | RERF-LC-KJ | 1.11 | 1.14 | 1.14 | 1.06 | 0.997 | 0.556 | 0.369 | 0.516 | 0.518 | 0.511 | 1.05 | 0.916 | 1.03 | 1.02 | 0.868 | 0.709 | 0.729 | 0.701 | 0.685 | 0.637
21 | LC-2-ad | 1.08 | 0.983 | 1.02 | 1.06 | 0.789 | 0.563 | 0.487 | 0.465 | 0.369 | 0.498 | 0.842 | 0.835 | 0.819 | 0.883 | 0.88 | 0.777 | 0.815 | 0.711 | 0.795 | 0.774
22 | HCC-15 | 1.03 | 1.07 | 1.02 | 1.05 | 1.02 | 0.349 | 0.439 | 0.416 | 0.36 | 0.441 | 1.05 | 1.17 | 1.1 | 1.19 | 1.32 | 0.684 | 0.746 | 0.686 | 0.676 | 0.619
23 | NCI-H2405 | 0.871 | 0.972 | 1 | 1.08 | 0.969 | 0.732 | 0.722 | 0.782 | 0.705 | 0.883 | 0.693 | 0.781 | 0.736 | 0.696 | 0.78 | 0.714 | 0.745 | 0.832 | 0.688 | 0.845
24 | LXF-289 | 0.924 | 1 | 1.02 | 0.935 | 0.968 | 0.214 | 0.228 | 0.195 | 0.189 | 0.171 | 1.07 | 1.06 | 1.07 | 1.13 | 1.05 | 0.438 | 0.402 | 0.391 | 0.372 | 0.359
25 | NCI-H1755 | 0.97 | 0.923 | 0.957 | 0.928 | 0.955 | 0.53 | 0.62 | 0.554 | 0.561 | 0.555 | 0.427 | 0.461 | 0.484 | 0.593 | 0.436 | 0.679 | 0.736 | 0.756 | 0.723 | 0.677
26 | NCI-H1437 | 0.471 | 0.575 | 0.493 | 0.49 | 0.523 | 0.418 | 0.392 | 0.435 | 0.392 | 0.419 | 1.19 | 1.09 | 1.22 | 1.11 | 1.09 | 0.509 | 0.615 | 0.592 | 0.573 | 0.549
